# Assay results from US12516016B2, “GPX4 inhibitors, pharmaceutical compositions thereof, and their use for treating GPX4-mediated diseases” (EUBULUS BIOTHERAPEUTICS (HONG KONG) LIMITED, priority 2020, dated 2026).
# System: hepatocellular carcinoma cell line Hub-7
# Assay: Cell proliferation assay (CELL-TITER GLO cell viability)
# Format: cell-based
# Details: 24 h, Hub-7 cells, 24 h incubation, read-out: Inhibition of Cell Proliferation EC50
# Method: The activity of a test compound was determined in a cell proliferation assay using the hepatocellular carcinoma cell line […]. Cells (4,000 cells per well) were seeded in a 96-well tissue culture plate. After incubated overnight, a test compound was added at predetermined concentrations, starting with 10 μM and followed by 3-fold serial dilution. After the cells were incubated for 24 h, cell viability was determined using a CELL-TITER GLO® assay. The CELL-TITER GLO® reagent (50 μL) was added to each well and the luminescence was measured by a multimode microplate reader after a brief period of shaking. EC50 values were determined for the test compound. The results are summarized in Table 1, wherein A represents a value no greater than 100 nM, B represents a value greater than 100 nM but no greater than 500 nM, C represents a value greater than 500 nM but no greater than 2 μM, D represents a value greater than 2 μM but no greater than 10 μM; and E represents a value greater than 10 μM.
row,Structure (SMILES),EC50 [nM]
1,"C#CC(=O)N(c1cccc(NC(C)=O)c1)C(C(=O)NCc1ccccc1)c1cccc(N)c1 (stereo not shown) [A44, N-(3-Acetamidophenyl)-N-(1-(3-aminophenyl)-2-(benzylamino)-2-oxoethyl)-propiolamide]",2000 to 10000
2,"C#CC(=O)N(c1ccc(O)cc1)C(C(=O)NCc1ccccc1)c1cccc(N)c1 (stereo not shown) [A45, N-(1-(3-Aminophenyl)-2-(benzylamino)-2-oxoethyl)-N-(4-hydroxyphenyl)-propiolamide]",2000 to 10000
3,"C#CC(=O)N(c1cccc(C(N)=O)c1)C(C(=O)NCc1ccccc1)c1cccc(N)c1 (stereo not shown) [A47, 3-(N-(1-(3-Aminophenyl)-2-(benzylamino)-2-oxoethyl)propiolamido)-benzamide]",> 10000
4,"C#CC(=O)N(c1ccc(C#N)cc1)C(C(=O)NCc1ccccc1)c1cccc(N)c1 (stereo not shown) [A48, N-(1-(3-Aminophenyl)-2-(benzylamino)-2-oxoethyl)-N-(4-cyanophenyl)-propiolamide]",≤ 100
5,"C#CC(=O)N(c1ccc(C(=O)OC)cc1)C(C(=O)NCc1ccccc1)c1cccc(N)c1 (stereo not shown) [A49, Methyl 4-(N-(1-(3-aminophenyl)-2-(benzylamino)-2-oxoethyl)propiolamido)-benzoate]",≤ 100
6,"C#CC(=O)N(c1ccc(S(N)(=O)=O)cc1)C(C(=O)NCc1ccccc1)c1cccc(N)c1 (stereo not shown) [A50, N-(1-(3-Aminophenyl)-2-(benzylamino)-2-oxoethyl)-N-(4-sulfamoylphenyl)-propiolamide]",> 10000
7,"C#CC(=O)N(c1ccc(Cl)cc1)C(C(=O)NCc1ccccc1)c1ccc(N)cc1 (stereo not shown) [A52, N-(2-(benzylamino)-1-(4-aminophenyl)-2-oxoethyl)-N-(4-chlorophenyl)propiolamide]",≤ 100
8,"C#CC(=O)N(c1ccc(OC)c(Cl)c1)C(C(=O)NCc1ccccc1)c1ccc(N)cc1 (stereo not shown) [A53, N-(1-(4-Aminophenyl)-2-(benzylamino)-2-oxoethyl)-N-(3-chloro-4-methoxy-phenyl)propiolamide]",≤ 100
9,"C#CC(=O)N(c1cccc(C(=O)OC)c1)C(C(=O)NCc1ccccc1)c1ccc(N)cc1 (stereo not shown) [A54, Methyl 3-(N-(1-(4-aminophenyl)-2-(benzylamino)-2-oxoethyl)propiolamido)-benzoate]",≤ 100
10,"C#CC(=O)N(c1cccc(C#N)c1)C(C(=O)NCc1ccccc1)c1ccc(N)cc1 (stereo not shown) [A55, N-(1-(4-Aminophenyl)-2-(benzylamino)-2-oxoethyl)-N-(3-cyanophenyl)-propiolamide]",100 to 500
11,"C#CC(=O)N(c1cccc(CO)c1)C(C(=O)NCc1ccccc1)c1ccc(N)cc1 (stereo not shown) [A56, N-(1-(4-Aminophenyl)-2-(benzylamino)-2-oxoethyl)-N-(3-(hydroxymethyl)-phenyl)propiolamide]",2000 to 10000
12,"C#CC(=O)N(c1cc(Cl)ccc1F)C(C(=O)NCc1ccccc1)c1ccc(N)cc1 (stereo not shown) [A57, N-(1-(4-Aminophenyl)-2-(benzylamino)-2-oxoethyl)-N-(5-chloro-2-fluoro-phenyl)propiolamide]",≤ 100
13,"C#CC(=O)N(c1cccc(O)c1)C(C(=O)NCc1ccccc1)c1ccc(N)cc1 (stereo not shown) [A58, N-(1-(4-Aminophenyl)-2-(benzylamino)-2-oxoethyl)-N-(3-hydroxyphenyl)-propiolamide]",2000 to 10000
14,"C#CC(=O)N(c1cccc(F)c1)C(C(=O)NCc1ccccc1)c1ccc(N)cc1 (stereo not shown) [A59, N-(1-(4-Aminophenyl)-2-(benzylamino)-2-oxoethyl)-N-(3-fluorophenyl)-propiolamide]",100 to 500
15,"C#CC(=O)N(c1ccc(OC)cc1)C(C(=O)NCc1ccccc1)c1ccc(N)cc1 (stereo not shown) [A60, N-(1-(4-Aminophenyl)-2-(benzylamino)-2-oxoethyl)-N-(4-methoxyphenyl)-propiolamide]",≤ 100
16,"C#CC(=O)N(c1cccc(OC)c1)C(C(=O)NCc1ccccc1)c1ccc(N)cc1 (stereo not shown) [A61, N-(1-(4-Aminophenyl)-2-(benzylamino)-2-oxoethyl)-N-(3-methoxyphenyl)-propiolamide]",≤ 100
17,"C#CC(=O)N(c1cccc(C(N)=O)c1)C(C(=O)NCc1ccccc1)c1ccc(N)cc1 (stereo not shown) [A62, 3-(N-(1-(4-Aminophenyl)-2-(benzylamino)-2-oxoethyl)propiolamido)-benzamide]",> 10000
18,"C#CC(=O)N(c1cccc(NC(C)=O)c1)C(C(=O)NCc1ccccc1)c1ccc(N)cc1 (stereo not shown) [A63, N-(3-Acetamidophenyl)-N-(1-(4-aminophenyl)-2-(benzylamino)-2-oxoethyl)-propiolamide]",2000 to 10000
19,"C#CC(=O)N(c1ccc(O)cc1)C(C(=O)NCc1ccccc1)c1ccc(N)cc1 (stereo not shown) [A64, N-(1-(4-Aminophenyl)-2-(benzylamino)-2-oxoethyl)-N-(4-hydroxyphenyl)-propiolamide]",2000 to 10000
20,"C#CC(=O)N(c1ccc(Cl)c(Cl)c1)C(C(=O)NCc1ccccc1)c1ccc(N)cc1 (stereo not shown) [A65, N-(1-(4-Aminophenyl)-2-(benzylamino)-2-oxoethyl)-N-(3,4-dichlorophenyl)-propiolamide]",≤ 100

row,Structure (SMILES),EC50 [nM]
1,"C#CC(=O)N(c1ccc(C#N)cc1)C(C(=O)NCc1ccccc1)c1ccc(N)cc1 (stereo not shown) [A66, N-(1-(4-Aminophenyl)-2-(benzylamino)-2-oxoethyl)-N-(4-cyanophenyl)-propiolamide]",≤ 100
2,"C#CC(=O)N(c1ccc(CO)cc1)C(C(=O)NCc1ccccc1)c1ccc(N)cc1 (stereo not shown) [A67, N-(1-(4-Aminophenyl)-2-(benzylamino)-2-oxoethyl)-N-(4-(hydroxymethyl)-phenyl)propiolamide]",500 to 2000
3,"C#CC(=O)N(c1ccc(S(N)(=O)=O)cc1)C(C(=O)NCc1ccccc1)c1ccc(N)cc1 (stereo not shown) [A68, N-(1-(4-Aminophenyl)-2-(benzylamino)-2-oxoethyl)-N-(4-sulfamoylphenyl)-propiolamide]",> 10000
4,"C#CC(=O)N(c1ccc(C(=O)OC)cc1)C(C(=O)NCc1ccccc1)c1ccc(N)cc1 (stereo not shown) [A69, Methyl 4-(N-(1-(4-aminophenyl)-2-(benzylamino)-2-oxoethyl)propiolamido)-benzoate]",≤ 100
5,"C#CC(=O)N(c1cccc(N)c1)C(C(=O)NCc1ccccc1)c1ccc(N)cc1 (stereo not shown) [A70, N-(3-Aminophenyl)-N-(1-(4-aminophenyl)-2-(benzylamino)-2-oxoethyl)-propiolamide]",500 to 2000
6,"C#CC(=O)N(c1ccc(NS(C)(=O)=O)cc1)C(C(=O)NCc1ccccc1)c1ccc(N)cc1 (stereo not shown) [A71, N-(1-(4-Aminophenyl)-2-(benzylamino)-2-oxoethyl)-N-(4-(methylsulfonamido)-phenyl)propiolamide]",2000 to 10000
7,"C#CC(=O)N(c1cccc(Cl)c1)C(C(=O)NCc1ccccc1)C1CC1 (stereo not shown) [A72, N-(2-(benzylamino)-1-cyclopropyl-2-oxoethyl)-N-(3-chlorophenyl)propiolamide]",100 to 500
8,"C#CC(=O)N(c1cccc(C(=O)OC)c1)C(C(=O)NCc1ccccc1)c1cccs1 (stereo not shown) [A73, Methyl 3-(N-(2-(benzylamino)-2-oxo-1-(thiophen-2-yl)ethyl)propiolamido)-benzoate]",≤ 100
9,"C#CC(=O)N(c1cccc(Cl)c1)C(C(=O)NCc1ccccc1)c1ccccc1 (stereo not shown) [A74, N-(2-(Benzylamino)-2-oxo-1-phenylethyl)-N-(3-chlorophenyl)propiolamide]",≤ 100
10,"C#CC(=O)N(c1cccc(Cl)c1)C(C(=O)NCc1ccccc1)c1cccs1 (stereo not shown) [A75, N-(2-(Benzylamino)-2-oxo-1-(thiophen-2-yl)ethyl)-N-(3-chlorophenyl)-propiolamide]",≤ 100
11,"C#CC(=O)N(c1cccc(C(=O)OC)c1)C(C(=O)NCc1ccccc1)c1ccccc1 (stereo not shown) [A76, Methyl 3-(N-(2-(benzylamino)-2-oxo-1-phenylethyl)propiolamido)benzoate]",≤ 100
12,"C#CC(=O)N(c1cccc(Cl)c1)C(C(=O)NCc1ccccc1)C1CCC(C(=O)OC)CC1 (stereo not shown) [A77, Methyl 4-(2-(benzylamino)-1-(N-(3-chlorophenyl)propiolamido)-2-oxoethyl)-cyclohexane-1-carboxylate]",100 to 500
13,"C#CC(=O)N(c1cccc(Cl)c1)C(C(=O)NCc1ccccc1)C1CCOCC1 (stereo not shown) [A78, N-(2-(Benzylamino)-2-oxo-1-(tetrahydro-2H-pyran-4-yl)ethyl)-N-(3-chloro-phenyl)propiolamide]",500 to 2000
14,"C#CC(=O)N(c1cccc(Cl)c1)C1(C(=O)NCc2ccccc2)CCC(C(=O)OC)CC1 (stereo not shown) [A79, Methyl 4-(benzylcarbamoyl)-4-(N-(3-chlorophenyl)propiolamido)-cyclohexane-carboxylate]",≤ 100
15,"C#CC(=O)N(c1cccc(Cl)c1F)C(C(=O)NCc1ccccc1)c1ccccc1 (stereo not shown) [A81, N-(2-(Benzylamino)-2-oxo-1-phenylethyl)-N-(3-chloro-2-fluorophenyl)-propiolamide]",100 to 500
16,"C#CC(=O)N(c1cccc(Cl)c1Cl)C(C(=O)NCc1ccccc1)c1ccccc1 (stereo not shown) [A82, N-(2-(Benzylamino)-2-oxo-1-phenylethyl)-N-(2,3-dichlorophenyl)-propiolamide]",≤ 100
17,"C#CC(=O)N(c1cccc(Cl)c1)C(C(=O)NCc1ccccc1)c1cccc(OCC(=O)OC)c1 (stereo not shown) [A83, Methyl 2-(3-(2-(benzylamino)-1-(N-(3-chlorophenyl)propiolamido)-2-oxoethyl)-phenoxy)acetate]",100 to 500
18,"C#CC(=O)N(Cc1ccc(C(=O)OC)cc1)C(C)C(=O)NCc1ccccc1 (stereo not shown) [A84, Methyl 4-((N-(1-(benzylamino)-1-oxopropan-2-yl)propiolamido)methyl)-benzoate]",100 to 500
19,"C#CC(=O)N(c1cccc2nsnc12)C(C(=O)NCc1ccccc1)c1ccccc1 (stereo not shown) [A85, N-(Benzo[c][1,2,5]thiadiazol-4-yl)-N-(2-(benzylamino)-2-oxo-1-phenylethyl)-propiolamide]",≤ 100
20,"C#CC(=O)N(c1cccc(Cl)c1)C1(C(=O)NCc2ccccc2)COC1 [A86, N-Benzyl-3-(N-(3-chlorophenyl)propiolamido)oxetane-3-carboxamide]",100 to 500
